Experimental data reported in PubChem BioAssay (NCI).
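Compound exposure: 48 hours, 5 concentrations, 96-well plates. TGI: total growth inhibition.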

How the values were obtained:
Test in all cases: growth of human tumour cells (NCI), 48 h
HS 578T breast = system: HS 578T breast
IGROV1 ovarian = system: IGROV1 ovarian
NCI-H226 lung = system: NCI-H226 lung
COLO 205 colon = system: COLO 205 colon
OVCAR-3 ovarian = system: OVCAR-3 ovarian
MCF7 breast = system: MCF7 breast
SF-295 CNS = system: SF-295 CNS
NCI/ADR-RES ovarian = system: NCI/ADR-RES ovarian
RPMI-8226 leukemia = system: RPMI-8226 leukemia
HT29 colon = system: HT29 colon
MDA-MB-231 breast = system: MDA-MB-231 breast
MALME-3M melanoma = system: MALME-3M melanoma
SN12C renal = system: SN12C renal
KM12 colon = system: KM12 colon
786-0 renal = system: 786-0 renal
OVCAR-4 ovarian = system: OVCAR-4 ovarian
SK-MEL-28 melanoma = system: SK-MEL-28 melanoma
NCI-H522 lung = system: NCI-H522 lung
A549 NSCLC = system: A549 NSCLC
SR leukemia = system: SR leukemia
LOX IMVI melanoma = system: LOX IMVI melanoma
K-562 leukemia = system: K-562 leukemia
MDA-MB-435 = system: MDA-MB-435
CAKI-1 renal = system: CAKI-1 renal
NCI-H23 lung = system: NCI-H23 lung
UACC-257 melanoma = system: UACC-257 melanoma
MOLT-4 leukemia = system: MOLT-4 leukemia
SK-OV-3 ovarian = system: SK-OV-3 ovarian
HCT-116 colon = system: HCT-116 colon
CCRF-CEM leukemia = system: CCRF-CEM leukemia
SF-268 CNS = system: SF-268 CNS
M14 melanoma = system: M14 melanoma
EKVX NSCLC = system: EKVX NSCLC
HCC-2998 colon = system: HCC-2998 colon
UO-31 renal = system: UO-31 renal
SK-MEL-2 melanoma = system: SK-MEL-2 melanoma
BT-549 breast = system: BT-549 breast
SF-539 CNS = system: SF-539 CNS
SW-620 colon = system: SW-620 colon
T-47D breast = system: T-47D breast
ACHN renal = system: ACHN renal
HL-60(TB) leukemia = system: HL-60(TB) leukemia
SK-MEL-5 melanoma = system: SK-MEL-5 melanoma
A498 renal = system: A498 renal
U251 CNS = system: U251 CNS
PC-3 prostate = system: PC-3 prostate
NCI-H460 lung = system: NCI-H460 lung
HCT-15 colon = system: HCT-15 colon
UACC-62 melanoma = system: UACC-62 melanoma
HOP-62 NSCLC = system: HOP-62 NSCLC
MDA-N = system: MDA-N
TK-10 renal = system: TK-10 renal
DU-145 prostate = system: DU-145 prostate
HOP-92 NSCLC = system: HOP-92 NSCLC
SNB-19 CNS = system: SNB-19 CNS
OVCAR-8 ovarian = system: OVCAR-8 ovarian
RXF 393 renal = system: RXF 393 renal
OVCAR-5 ovarian = system: OVCAR-5 ovarian
SNB-75 CNS = system: SNB-75 CNS

## C=C1CCCC(C)(C)[C@H]1C/C=C1\CCOC1=O
HS 578T breast
  TGI: 44.3 µM
IGROV1 ovarian
  TGI: 28.8 µM
NCI-H226 lung
  TGI: 24.9 µM
COLO 205 colon
  TGI: 33.4 µM
OVCAR-3 ovarian
  TGI: 34.8 µM
MCF7 breast
  TGI: 25.4 µM
SF-295 CNS
  TGI: 30.8 µM
NCI/ADR-RES ovarian
  TGI: 26.8 µM
RPMI-8226 leukemia
  TGI: > 100 µM
HT29 colon
  TGI: 28 µM
MDA-MB-231 breast
  TGI: 31.6 µM
MALME-3M melanoma
  TGI: 26.9 µM
SN12C renal
  TGI: 35.2 µM
KM12 colon
  TGI: 31.8 µM
786-0 renal
  TGI: 28.7 µM
OVCAR-4 ovarian
  TGI: 26.8 µM
SK-MEL-28 melanoma
  TGI: 29.6 µM
NCI-H522 lung
  TGI: 40.4 µM
A549 NSCLC
  TGI: 26.6 µM
SR leukemia
  TGI: > 100 µM
LOX IMVI melanoma
  TGI: 23.6 µM
K-562 leukemia
  TGI: 26.5 µM
MDA-MB-435
  TGI: 22 µM
CAKI-1 renal
  TGI: 30.2 µM
NCI-H23 lung
  TGI: 39 µM
UACC-257 melanoma
  TGI: 24.5 µM
MOLT-4 leukemia
  TGI: 38.9 µM
SK-OV-3 ovarian
  TGI: 57 µM
HCT-116 colon
  TGI: 25.8 µM
CCRF-CEM leukemia
  TGI: > 100 µM
SF-268 CNS
  TGI: 23.9 µM
M14 melanoma
  TGI: 34 µM
EKVX NSCLC
  TGI: 30 µM
HCC-2998 colon
  TGI: > 100 µM
UO-31 renal
  TGI: 29.6 µM
SK-MEL-2 melanoma
  TGI: > 100 µM
BT-549 breast
  TGI: 26.9 µM
SF-539 CNS
  TGI: 34.5 µM
SW-620 colon
  TGI: 35.2 µM
T-47D breast
  TGI: > 100 µM
ACHN renal
  TGI: 29.4 µM
HL-60(TB) leukemia
  TGI: 43.8 µM
SK-MEL-5 melanoma
  TGI: 21.8 µM
A498 renal
  TGI: 31 µM
U251 CNS
  TGI: 30.4 µM
PC-3 prostate
  TGI: 31.5 µM
NCI-H460 lung
  TGI: 24.4 µM
HCT-15 colon
  TGI: > 100 µM
UACC-62 melanoma
  TGI: > 100 µM
HOP-62 NSCLC
  TGI: 39.9 µM
MDA-N
  TGI: 33.3 µM
TK-10 renal
  TGI: 34.5 µM
DU-145 prostate
  TGI: 26.2 µM
HOP-92 NSCLC
  TGI: 26.6 µM
SNB-19 CNS
  TGI: 30.7 µM
OVCAR-8 ovarian
  TGI: 38.5 µM

## Cc1c[nH]c(C(=O)O)c1-c1cccn1-c1ccc(Cl)cc1[N+](=O)[O-]
HS 578T breast
  TGI: > 100 µM
IGROV1 ovarian
  TGI: > 100 µM
NCI-H226 lung
  TGI: > 100 µM
COLO 205 colon
  TGI: > 100 µM
OVCAR-3 ovarian
  TGI: > 100 µM
MCF7 breast
  TGI: > 100 µM
SF-295 CNS
  TGI: > 100 µM
NCI/ADR-RES ovarian
  TGI: > 100 µM
HT29 colon
  TGI: > 100 µM
MDA-MB-231 breast
  TGI: > 100 µM
SN12C renal
  TGI: > 100 µM
RXF 393 renal
  TGI: > 100 µM
KM12 colon
  TGI: > 100 µM
786-0 renal
  TGI: > 100 µM
OVCAR-4 ovarian
  TGI: > 100 µM
SK-MEL-28 melanoma
  TGI: > 100 µM
OVCAR-5 ovarian
  TGI: > 100 µM
NCI-H522 lung
  TGI: > 100 µM
A549 NSCLC
  TGI: > 100 µM
SR leukemia
  TGI: > 100 µM
LOX IMVI melanoma
  TGI: > 100 µM
K-562 leukemia
  TGI: > 100 µM
MDA-MB-435
  TGI: > 100 µM
CAKI-1 renal
  TGI: > 100 µM
NCI-H23 lung
  TGI: > 100 µM
UACC-257 melanoma
  TGI: > 100 µM
SNB-75 CNS
  TGI: > 100 µM
MOLT-4 leukemia
  TGI: > 100 µM
SK-OV-3 ovarian
  TGI: > 100 µM
HCT-116 colon
  TGI: > 100 µM
CCRF-CEM leukemia
  TGI: > 100 µM
SF-268 CNS
  TGI: > 100 µM
M14 melanoma
  TGI: > 100 µM
EKVX NSCLC
  TGI: > 100 µM
HCC-2998 colon
  TGI: > 100 µM
UO-31 renal
  TGI: > 100 µM
SK-MEL-2 melanoma
  TGI: > 100 µM
BT-549 breast
  TGI: > 100 µM
SF-539 CNS
  TGI: > 100 µM
SW-620 colon
  TGI: > 100 µM
T-47D breast
  TGI: > 100 µM
ACHN renal
  TGI: > 100 µM
SK-MEL-5 melanoma
  TGI: > 100 µM
A498 renal
  TGI: > 100 µM
U251 CNS
  TGI: > 100 µM
PC-3 prostate
  TGI: > 100 µM
NCI-H460 lung
  TGI: > 100 µM
HCT-15 colon
  TGI: > 100 µM
UACC-62 melanoma
  TGI: > 100 µM
HOP-62 NSCLC
  TGI: > 100 µM
MDA-N
  TGI: > 100 µM
TK-10 renal
  TGI: > 100 µM
DU-145 prostate
  TGI: > 100 µM
HOP-92 NSCLC
  TGI: > 100 µM
OVCAR-8 ovarian
  TGI: > 100 µM
